Results published in patent publication US20080161366A1, “AMINOALKYL SUBSTITUTED ARYL SULFAMIDE DERIVATIVES AND METHODS OF THEIR USE” (Wyeth, priority 2006, published 2008).
Counter-ions that a name gives are not always drawn.

target: human norepinephrine transporter (hNET) (Homo sapiens, UniProt P23975); test: hNET uptake, Protocol B: cell based norepinephrine reuptake assay using recombinant hNET (MDCK-Net6 cells); details: MDCK-Net6, read-out: NE uptake (Protocol B) % inhibition @ 6 uM
Sequence (P23975 whole entry): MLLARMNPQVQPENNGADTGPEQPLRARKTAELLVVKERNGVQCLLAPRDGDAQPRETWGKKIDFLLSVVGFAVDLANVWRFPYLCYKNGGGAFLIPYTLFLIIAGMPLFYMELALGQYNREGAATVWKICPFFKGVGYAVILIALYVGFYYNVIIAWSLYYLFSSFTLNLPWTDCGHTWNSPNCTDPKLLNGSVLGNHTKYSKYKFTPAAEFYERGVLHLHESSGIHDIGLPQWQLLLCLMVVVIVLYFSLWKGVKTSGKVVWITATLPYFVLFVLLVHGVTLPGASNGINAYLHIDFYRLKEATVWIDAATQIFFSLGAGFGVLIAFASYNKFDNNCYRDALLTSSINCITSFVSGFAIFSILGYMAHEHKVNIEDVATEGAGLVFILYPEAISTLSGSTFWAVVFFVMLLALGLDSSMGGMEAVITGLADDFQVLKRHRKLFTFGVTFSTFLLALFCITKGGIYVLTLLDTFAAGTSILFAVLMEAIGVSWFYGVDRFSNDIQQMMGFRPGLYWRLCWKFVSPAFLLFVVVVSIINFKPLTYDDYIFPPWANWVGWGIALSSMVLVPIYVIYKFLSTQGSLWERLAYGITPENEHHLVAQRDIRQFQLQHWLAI

Work on `O=S1(=O)N(CCCNCC(F)(F)F)c2ccccc2N1c1ccc(F)c(F)c1` [Example 111, 3-[3-(3,4-difluorophenyl)-2,2-dioxido-2,1,3-benzothiadiazol-1(3H)-yl]-N-(2,2,2-trifluoroethyl)propan-1-amine] yielded an inhibition at 6 µM of 0%.

same assay, conditions: NE uptake (Protocol B) IC50 (nM), MDCK-Net6 cells, 3H-NE 16 nM

Compared with `CNCCCN1c2ccccc2N(c2cc(F)ccc2F)S1(=O)=O` [Example 48, 3-[3-(2,5-difluorophenyl)-2,2-dioxido-2,1,3-benzothiadiazol-1(3H)-yl]-N-methylpropan-1-amine hydrochloride], `CNCCCN1c2ccccc2N(c2ccc(F)cc2F)S1(=O)=O` [Example 114, 3-[3-(2,4-difluorophenyl)-2,2-dioxido-2,1,3-benzothiadiazol-1(3H)-yl]-N-methylpropan-1-amine hydrochloride] is 4-fold higher in IC50: 2.78 nM for the first, 11 nM for the second. The first is the more potent here.

Going from `CNCCCN1c2ccccc2N(c2cccc(C)c2)S1(=O)=O` [Example 15, N-methyl-3-[3-(3-methylphenyl)-2,2-dioxido-2,1,3-benzothiadiazol-1(3H)-yl]propan-1-amine] to `CNCCCN1c2ccccc2N(c2cccc(OC)c2)S1(=O)=O` [Example 17, 3-[3-(3-methoxyphenyl)-2,2-dioxido-2,1,3-benzothiadiazol-1(3H)-yl]-N-methylpropan-1-amine], the IC50 falls from 96.2 nM to 10.8 nM (8.9-fold). The second is the more potent here.

Compared with `CN(C)CCCCCCN1c2ccccc2N(c2ccccc2F)S1(=O)=O` [Example 103, 6-[3-(2-fluorophenyl)-2,2-dioxido-2,1,3-benzothiadiazol-1(3H)-yl]-N,N-dimethylhexan-1-amine], `NCCCCN1c2ccccc2N(c2ccccc2F)S1(=O)=O` [Example 58, 4-[3-(2-fluorophenyl)-2,2-dioxido-2,1,3-benzothiadiazol-1(3H)-yl]butan-1-amine] is 2.7-fold higher in IC50: 1200 nM for the first, 3270 nM for the second. The first is the more potent here.

First: CNCCCN1c2ccccc2N(c2ccccc2OC(F)(F)F)S1(=O)=O [Example 50, 3-{2,2-dioxido-3-[2-(trifluoromethoxy)phenyl]-2,1,3-benzothiadiazol-1(3H)-yl}-N-methylpropan-1-amine hydrochloride]
Second: CNCCCN1c2ccccc2N(c2cccc(C(F)(F)F)c2)S1(=O)=O [Example 51, 3-{2,2-dioxido-3-[3-(trifluoromethyl)phenyl]-2,1,3-benzothiadiazol-1(3H)-yl}-N-methylpropan-1-amine hydrochloride]
The IC50 of the first is 17-fold lower: 190 nM for the first, 3170 nM for the second.

Going from `O=S1(=O)N(CCCNC2CC2)c2ccccc2N1c1ccccc1F` [Example 97, N-{3-[3-(2-fluorophenyl)-2,2-dioxido-2,1,3-benzothiadiazol-1(3H)-yl]propyl}cyclopropanamine] to `O=S1(=O)N(CCCNC2CCNCC2)c2ccccc2N1c1ccccc1F` [Example 131, N-{3-[3-(2-fluorophenyl)-2,2-dioxido-2,1,3-benzothiadiazol-1(3H)-yl]propyl}piperidin-4-amine dihydrochloride], the IC50 rises from 21 nM to 365 nM (17-fold).

First: CNCCCCCN1c2ccccc2N(c2ccc(F)cc2Cl)S1(=O)=O [Example 89, 5-[3-(2-chloro-4-fluorophenyl)-2,2-dioxido-2,1,3-benzothiadiazol-1(3H)-yl]-N-methylpentan-1-amine hydrochloride]
Second: CNCCCCN1c2ccccc2N(c2ccc(F)cc2)S1(=O)=O [Example 82, 4-[3-(4-Fluorophenyl)-2,2-dioxido-2,1,3-benzothiadiazol-1(3H)-yl]-N-methylbutan-1-amine hydrochloride]
The IC50 of the first is 46-fold higher: 2110 nM for the first, 46 nM for the second. The second is the more potent here.

`CNCCCN1c2ccccc2N(c2ccc(Cl)cc2C)S1(=O)=O` [Example 100, 3-[3-(4-chloro-2-methylphenyl)-2,2-dioxido-2,1,3-benzothiadiazol-1(3H)-yl]-N-methylpropan-1-amine] and `CNCCCN1c2ccccc2N(c2ccc(OC)cc2F)S1(=O)=O` [Example 91, 3-[3-(2-fluoro-4-methoxyphenyl)-2,2-dioxido-2,1,3-benzothiadiazol-1(3H)-yl]-N-methylpropan-1-amine hydrochloride] are within 1.5-fold of each other in IC50: 370 nM for the first, 325 nM for the second.

Going from `CNCCCN1c2ccc(-c3ccccc3)cc2N(c2ccccc2F)S1(=O)=O` [Example 71, 3-[3-(2-fluorophenyl)-2,2-dioxido-5-phenyl-2,1,3-benzothiadiazol-1(3H)-yl]-N-methylpropan-1-amine hydrochloride] to `CNCCCN1c2ccccc2N(c2ccc3ccccc3c2)S1(=O)=O` [Example 14, N-methyl-3-[3-(2-naphthyl)-2,2-dioxido-2,1,3-benzothiadiazol-1(3H)-yl]propan-1-amine], the IC50 rises from 206 nM to 2620 nM (13-fold).

`NCCCN1c2ccccc2N(c2ccc(F)cc2F)S1(=O)=O` [Example 72, 3-[3-(2,4-difluorophenyl)-2,2-dioxido-2,1,3-benzothiadiazol-1(3H)-yl]propan-1-amine hydrochloride] and `NCCCN1c2ccccc2N(c2c(F)cc(F)cc2F)S1(=O)=O` [Example 70, 3-[2,2-Dioxido-3-(2,4,6-trifluorophenyl)-2,1,3-benzothiadiazol-1(3H)-yl]propan-1-amine hydrochloride] are within 1.5-fold of each other in IC50: 259 nM for the first, 277 nM for the second.

Compared with `CNCCCN1c2ccccc2N(c2ccc(OC)nc2)S1(=O)=O` [Example 28, 3-[3-(6-methoxypyridin-3-yl)-2,2-dioxido-2,1,3-benzothiadiazol-1(3H)-yl]-N-methylpropan-1-amine hydrochloride], `CNCCCN1c2ccccc2N(c2cc(F)cc(F)c2)S1(=O)=O` [Example 47, 3-[3-(3,5-difluorophenyl)-2,2-dioxido-2,1,3-benzothiadiazol-1(3H)-yl]-N-methylpropan-1-amine hydrochloride] is 700-fold lower in IC50: 1900 nM for the first, 2.73 nM for the second. The second is the more potent here.

Compared with `CNCCCN1c2cccc(F)c2N(c2ccccc2)S1(=O)=O` [Example 41, 3-(4-fluoro-2,2-dioxido-3-phenyl-2,1,3-benzothiadiazol-1(3H)-yl)-N-methylpropan-1-amine], `CNCCCN1c2ccccc2N(c2cccc(F)c2F)S1(=O)=O` [Example 46, 3-[3-(2,3-difluorophenyl)-2,2-dioxido-2,1,3-benzothiadiazol-1(3H)-yl]-N-methylpropan-1-amine hydrochloride] is 2-fold higher in IC50: 2.41 nM for the first, 4.84 nM for the second.

`O=S1(=O)N(CCCNC2CCCC2)c2ccccc2N1c1c(F)cccc1F` [Example 129, N-{3-[3-(2,6-difluorophenyl)-2,2-dioxido-2,1,3-benzothiadiazol-1(3H)-yl]propyl}cyclopentanamine hydrochloride] and `O=S1(=O)N(CCCNC2CCCCC2)c2ccccc2N1c1c(F)cccc1F` [Example 130, N-{3-[3-(2,6-difluorophenyl)-2,2-dioxido-2,1,3-benzothiadiazol-1(3H)-yl]propyl}cyclohexanamine hydrochloride] are within 1.5-fold of each other in IC50: 195 nM for the first, 224 nM for the second.

Compared with `CNCCCN1c2ccccc2N(c2ccc(F)c(F)c2F)S1(=O)=O` [Example 113, 3-[2,2-dioxido-3-(2,3,4-trifluorophenyl)-2,1,3-benzothiadiazol-1(3H)-yl]-N-methylpropan-1-amine], `NCCCN1c2cccc(F)c2N(c2ccccc2F)S1(=O)=O` [Example 74, 3-[4-fluoro-3-(2-fluorophenyl)-2,2-dioxido-2,1,3-benzothiadiazol-1(3H)-yl]propan-1-amine hydrochloride] is 40-fold lower in IC50: 109 nM for the first, 2.7 nM for the second. The second is the more potent here.

With `O=S1(=O)N(CCCCNC2CCC2)c2ccccc2N1c1c(F)cccc1F` [Example 124, N-{4-[3-(2,6-difluorophenyl)-2,2-dioxido-2,1,3-benzothiadiazol-1(3H)-yl]butyl}cyclobutanamine hydrochloride] the IC50 was 132 nM.
